The values that follow come from patent US20240360157A1, “TYK2 INHIBITORS” (BIOGEN MA INC., priority 2021, published 2024).

Common to all, as to format: biochemical
In test [1] the target is human TYK2 catalytic kinase (JH1) domain (Homo sapiens (Human), UniProt P29597). Put plainly: ADP-Glo Kinase Assay, recombinant TYK2 catalytic kinase (JH1) domain. The settings on record: recombinant JH1 domain 2 nM, 10 μM ATP, JAK3-974 peptide, mean, read-out: TYK2 biochem IC50 (nM) Mean. Summed up: (§1)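 Compounds were titrated in 11 points of 3-fold dilution starting at 10 μM or 1 μM. Enzyme (JAK1 4 nM, JAK2 0.2 nM, JAK3 0.3 nM, TYK2 2 nM) and 50 μM peptide reacted for 100 minutes, followed by ADP-to-luminescence detection; IC50 by 4-parameter fit.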
Sequence of human TYK2 catalytic kinase (JH1) domain (P29597 897-1176): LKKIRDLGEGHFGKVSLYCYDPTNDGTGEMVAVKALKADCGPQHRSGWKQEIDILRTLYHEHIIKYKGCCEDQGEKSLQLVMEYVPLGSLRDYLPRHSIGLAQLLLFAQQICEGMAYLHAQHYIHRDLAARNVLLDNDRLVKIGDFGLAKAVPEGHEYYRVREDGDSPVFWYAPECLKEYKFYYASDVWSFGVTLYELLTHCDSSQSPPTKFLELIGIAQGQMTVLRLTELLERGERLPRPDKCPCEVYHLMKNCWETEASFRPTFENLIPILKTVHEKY
In general terms: ADP-Glo first removes unused ATP, then detects ADP through luciferase.

In test [2] the target is human JAK1 catalytic kinase (JH1) domain (Homo sapiens (Human), UniProt P23458). Description: ADP-Glo Kinase Assay, recombinant JAK1 catalytic kinase (JH1) domain. Particulars: recombinant JH1 domain 4 nM, 35 μM ATP, JAK3-342 peptide, mean, read-out: JAK1 biochem IC50 (nM) Mean. Summed up:
as §1

For test [3], the target named is human JAK2 catalytic kinase (JH1) domain (Homo sapiens (Human), UniProt O60674). Put plainly: ADP-Glo Kinase Assay, recombinant JAK2 catalytic kinase (JH1) domain. Particulars: recombinant JH1 domain 0.2 nM, 15 μM ATP, JAK3-974 peptide, mean, read-out: JAK2 biochem IC50 (nM) Mean. The method, boiled down: as §1
Sequence of human JAK2 catalytic kinase (JH1) domain (O60674 849-1124): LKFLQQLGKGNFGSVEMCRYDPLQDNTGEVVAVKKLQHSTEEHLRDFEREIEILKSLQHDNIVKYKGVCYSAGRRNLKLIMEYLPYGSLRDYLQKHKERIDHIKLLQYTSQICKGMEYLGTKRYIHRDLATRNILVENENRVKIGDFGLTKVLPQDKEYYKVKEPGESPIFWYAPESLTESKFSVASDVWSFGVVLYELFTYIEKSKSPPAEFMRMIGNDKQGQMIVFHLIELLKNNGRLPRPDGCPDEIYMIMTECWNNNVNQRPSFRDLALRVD
Test [4] concerns the target human JAK3 catalytic kinase (JH1) domain (Homo sapiens (Human), UniProt P52333). Put plainly: ADP-Glo Kinase Assay, recombinant JAK3 catalytic kinase (JH1) domain. The settings on record: recombinant JH1 domain 0.3 nM, 4 μM ATP, JAK3-974 peptide, mean, read-out: JAK3 biochem IC50 (nM) Mean. The method, boiled down: as §1

Structures are written as SMILES. Counter-ions that a name gives are not always drawn.

Sequence of human JAK1 catalytic kinase (JH1) domain (P23458 875-1153): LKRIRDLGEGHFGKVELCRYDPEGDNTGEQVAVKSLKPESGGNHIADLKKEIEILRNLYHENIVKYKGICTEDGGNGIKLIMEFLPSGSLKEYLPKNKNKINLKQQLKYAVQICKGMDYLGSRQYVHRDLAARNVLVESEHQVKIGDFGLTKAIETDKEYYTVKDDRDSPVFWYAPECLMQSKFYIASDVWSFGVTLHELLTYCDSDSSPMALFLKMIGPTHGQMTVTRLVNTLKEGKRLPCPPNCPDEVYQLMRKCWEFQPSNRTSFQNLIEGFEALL
Sequence of human JAK3 catalytic kinase (JH1) domain (P52333 822-1111): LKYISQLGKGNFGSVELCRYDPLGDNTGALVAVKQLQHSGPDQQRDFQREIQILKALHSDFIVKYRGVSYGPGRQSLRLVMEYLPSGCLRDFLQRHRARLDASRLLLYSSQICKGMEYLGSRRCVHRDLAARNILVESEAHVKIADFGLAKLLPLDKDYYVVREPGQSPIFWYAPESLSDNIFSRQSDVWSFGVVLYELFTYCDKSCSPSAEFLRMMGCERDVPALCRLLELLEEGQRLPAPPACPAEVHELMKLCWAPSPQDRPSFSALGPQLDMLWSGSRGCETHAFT

As for `CC(C)(F)C(=O)N1C2CCC1CN(c1ncnn3cc(-c4cnn(C(F)F)c4)cc13)C2` [Example 32, 1-(3-(6-(1-(difluoromethyl)-1H-pyrazol-4-yl)pyrrolo[2,1-f][1,2,4]triazin-4-yl)-3,8-diazabicyclo[3.2.1]octan-8-yl)-2-fluoro-2-methylpropan-1-one trifluoroacetate], the concentration for half-maximal inhibition (IC50) (in general, the concentration needed to halve the response being measured) is 242 nM in test [1], 1800 nM in test [2], 4400 nM in test [3] and 2990 nM in test [4].
In the same order, the values of `C[C@]1(F)C[C@@H](C(=O)N2C3CCC2CN(c2ncnn4cc(-c5cnn(C(F)F)c5)cc24)C3)C1` [Example 33, (3-(6-(1-(difluoromethyl)-1H-pyrazol-4-yl)pyrrolo[2,1-f][1,2,4]triazin-4-yl)-3,8-diazabicyclo[3.2.1]octan-8-yl)((1s,3s)-3-fluoro-3-methylcyclobutyl)methanone trifluoroacetate] are 476 nM, 854 nM, 6140 nM and 4430 nM.
Turning to `C[C@]1(F)C[C@H](C(=O)N2C3CCC2CN(c2ncnn4cc(-c5cnn(C(F)F)c5)cc24)C3)C1` [Example 34, (3-(6-(1-(difluoromethyl)-1H-pyrazol-4-yl)pyrrolo[2,1-f][1,2,4]triazin-4-yl)-3,8-diazabicyclo[3.2.1]octan-8-yl)((1r,3r)-3-fluoro-3-methylcyclobutyl)methanone trifluoroacetate], the IC50 in test [1] came out at 510 nM; in test [2], 3190 nM; in test [3], 7520 nM; in test [4] it was 9510 nM.
For the compound `CCOC1CC1C(=O)N1C2CCC1CN(c1ncnn3cc(-c4cnn(C(F)F)c4)cc13)C2` (stereo not shown) [Example 35, (3-(6-(1-(difluoromethyl)-1H-pyrazol-4-yl)pyrrolo[2,1-f][1,2,4]triazin-4-yl)-3,8-diazabicyclo[3.2.1]octan-8-yl)(2-ethoxycyclopropyl)methanone trifluoroacetate], the IC50 is 856 nM in test [1], 4660 nM in test [2], 10000 nM in test [3] and 10000 nM in test [4].
Take `O=C(C1CC(O)(C(F)(F)F)C1)N1C2CCC1CN(c1ncnn3cc(-c4cnn(C(F)F)c4)cc13)C2` (stereo not shown) [Example 36, (3-(6-(1-(difluoromethyl)-1H-pyrazol-4-yl)pyrrolo[2,1-f][1,2,4]triazin-4-yl)-3,8-diazabicyclo[3.2.1]octan-8-yl)(3-hydroxy-3-(trifluoromethyl)cyclobutyl)methanone trifluoroacetate]: the concentration for half-maximal inhibition (IC50) worked out at 968 nM in test [1], 2200 nM in test [2], 7490 nM in test [3] and 5840 nM in test [4].
In the same order, the values of `COc1cc(-n2cc3nccc(N4CC5CCC(C4)N5C(=O)[C@@H]4C[C@H]4F)c3n2)ccn1` [Example 37, ((1S,2R)-2-fluorocyclopropyl)(3-(2-(2-methoxypyridin-4-yl)-2H-pyrazolo[4,3-b]pyridin-7-yl)-3,8-diazabicyclo[3.2.1]octan-8-yl)methanone] are 11 nM, 72 nM, 88 nM and 868 nM.
In the same order, the values of `CCC(=O)N1C2CCC1CN(c1ncnn3cc(-c4cnn(C(F)F)c4)cc13)C2` [Example 41, 1-(3-(6-(1-(difluoromethyl)-1H-pyrazol-4-yl)pyrrolo[2,1-f][1,2,4]triazin-4-yl)-3,8-diazabicyclo[3.2.1]octan-8-yl)propan-1-one] are 560 nM, 2260 nM, 8760 nM and 8430 nM.
With `CC(C)C(=O)N1C2CCC1CN(c1ncnn3cc(-c4cnn(C(F)F)c4)cc13)C2` [Example 42, 1-(3-(6-(1-(difluoromethyl)-1H-pyrazol-4-yl)pyrrolo[2,1-f][1,2,4]triazin-4-yl)-3,8-diazabicyclo[3.2.1]octan-8-yl)-2-methylpropan-1-one], the half-inhibitory concentration (IC50) in test [1] turned out to be 466 nM; in test [2], 5220 nM; in test [3], 7960 nM; in test [4], 9510 nM.
On to `O=C(CC(F)(F)F)N1C2CCC1CN(c1ncnn3cc(-c4cnn(C(F)F)c4)cc13)C2` [Example 43, 1-(3-(6-(1-(difluoromethyl)-1H-pyrazol-4-yl)pyrrolo[2,1-f][1,2,4]triazin-4-yl)-3,8-diazabicyclo[3.2.1]octan-8-yl)-3,3,3-trifluoropropan-1-one], for which the half-maximal inhibitory concentration (IC50) in test [1] stood at 223 nM; in test [2] it was 892 nM; in test [3] it was 5200 nM; in test [4] it was 4640 nM.
In the same order, the values of `N#CCC(=O)N1C2CCC1CN(c1ncnn3cc(-c4cnn(C(F)F)c4)cc13)C2` [Example 44, 3-(3-(6-(1-(difluoromethyl)-1H-pyrazol-4-yl)pyrrolo[2,1-f][1,2,4]triazin-4-yl)-3,8-diazabicyclo[3.2.1]octan-8-yl)-3-oxopropanenitrile] are 236 nM, 395 nM, 4180 nM and 5390 nM.
Consider `O=C(N1C2CCC1CN(c1ncnn3cc(-c4cnn(C(F)F)c4)cc13)C2)C1(C(F)(F)F)CC1` [Example 45, (3-(6-(1-(difluoromethyl)-1H-pyrazol-4-yl)pyrrolo[2,1-f][1,2,4]triazin-4-yl)-3,8-diazabicyclo[3.2.1]octan-8-yl)(1-(trifluoromethyl)cyclopropyl)methanone], for which the half-maximal inhibitory concentration (IC50) is 988 nM in test [1], 7300 nM in test [2], 9490 nM in test [3] and 6010 nM in test [4].
In the same order, the values of `O=C(C1CC(F)C1)N1C2CCC1CN(c1ncnn3cc(-c4cnn(C(F)F)c4)cc13)C2` (stereo not shown) [Example 48, (3-(6-(1-(difluoromethyl)-1H-pyrazol-4-yl)pyrrolo[2,1-f][1,2,4]triazin-4-yl)-3,8-diazabicyclo[3.2.1]octan-8-yl)(3-fluorocyclobutyl)methanone] are 483 nM, 3780 nM, 8770 nM and 9430 nM.
In the same order, the values of `O=C(C1CC1(F)F)N1C2CCC1CN(c1ncnn3cc(-c4cnn(C(F)F)c4)cc13)C2` (stereo not shown) [Example 49, (2,2-difluorocyclopropyl)(3-(6-(1-(difluoromethyl)-1H-pyrazol-4-yl)pyrrolo[2,1-f][1,2,4]triazin-4-yl)-3,8-diazabicyclo[3.2.1]octan-8-yl)methanone] are 81 nM, 475 nM, 2100 nM and 4900 nM.
In the same order, the values of `O=C(N1C2CCC1CN(c1ncnn3cc(-c4cnn(C(F)F)c4)cc13)C2)C1(F)CC1` [Example 50, (3-(6-(1-(difluoromethyl)-1H-pyrazol-4-yl)pyrrolo[2,1-f][1,2,4]triazin-4-yl)-3,8-diazabicyclo[3.2.1]octan-8-yl)(1-fluorocyclopropyl)methanone] are 295 nM, 1040 nM, 6150 nM and 2020 nM.
Take `O=C(C1CCC1)N1C2CCC1CN(c1ncnn3cc(-c4cnn(C(F)F)c4)cc13)C2` [Example 51, cyclobutyl(3-(6-(1-(difluoromethyl)-1H-pyrazol-4-yl)pyrrolo[2,1-f][1,2,4]triazin-4-yl)-3,8-diazabicyclo[3.2.1]octan-8-yl)methanone]: the 50% inhibitory concentration (IC50) was 407 nM in test [1], 2830 nM in test [2], 9130 nM in test [3] and 7870 nM in test [4].
On to `CC1(C(=O)N2C3CCC2CN(c2ncnn4cc(-c5cnn(C(F)F)c5)cc24)C3)CCC1` [Example 52, (3-(6-(1-(difluoromethyl)-1H-pyrazol-4-yl)pyrrolo[2,1-f][1,2,4]triazin-4-yl)-3,8-diazabicyclo[3.2.1]octan-8-yl)(1-methylcyclobutyl)methanone], for which the IC50 in test [1] is 425 nM; in test [2], 6480 nM; in test [3] it was 9080 nM; in test [4], 9370 nM.
In the same order, the values of `O=C(C1CC(F)(F)C1)N1C2CCC1CN(c1ncnn3cc(-c4cnn(C(F)F)c4)cc13)C2` [Example 55, (3,3-difluorocyclobutyl)(3-(6-(1-(difluoromethyl)-1H-pyrazol-4-yl)pyrrolo[2,1-f][1,2,4]triazin-4-yl)-3,8-diazabicyclo[3.2.1]octan-8-yl)methanone] are 290 nM, 2790 nM, 7180 nM and 8580 nM.
In the same order, the values of `CC(F)(F)C(=O)N1C2CCC1CN(c1ncnn3cc(-c4cnn(C(F)F)c4)cc13)C2` [Example 56, 1-(3-(6-(1-(difluoromethyl)-1H-pyrazol-4-yl)pyrrolo[2,1-f][1,2,4]triazin-4-yl)-3,8-diazabicyclo[3.2.1]octan-8-yl)-2,2-difluoropropan-1-one] are 233 nM, 1140 nM, 3340 nM and 1360 nM.
With `CCC(=O)N1C2CCC1CN(c1ncnn3cc(-c4cnn(C)c4)cc13)C2` [Example 57, 1-(3-(6-(1-methyl-1H-pyrazol-4-yl)pyrrolo[2,1-f][1,2,4]triazin-4-yl)-3,8-diazabicyclo[3.2.1]octan-8-yl)propan-1-one], the half-inhibitory concentration (IC50) in test [1] came to 941 nM; in test [2] it was 5140 nM; in test [3], 10000 nM; in test [4], 7850 nM.
